Results reported in patent US20100254940A1, “Compositions and Methods for Regulating an Immune Response in a Subject” (INNATE PHARMA, S.A., priority 2002, published 2010).

Columns and labels:
γδ T cell [1] = test: In vitro TNFα release assay, γδ T cell amplification from human PBMCs (in the presence of rhIL2); assay type: cell-based
Protocol: The in vitro biological activity of γδ T cell amplification from human PBMCs (in the presence of rhIL2) was assessed using a TNFα release assay.
Cytokine secretion and cytolytic activity can be assessed using any appropriate in vitro assay, or those provided in the examples herein. For example, cytokine secretion can be determined according to the methods described in Espinosa et al. (J. Biol. Chem., 2001, Vol. 276, Issue 21, 18337-18344), describing measurement of TNF-α release in a bioassay using TNF-α-sensitive cells. Briefly, 10^4 γδT cells/well were incubated with stimulus plus 25 units of IL2/well in 100 μl of culture medium during 24 h at 37° C. Then, 50 μl of supernatant were added to 50 μl of WEHI cells plated at 3×10^4 cells/well in culture medium plus actinomycin D (2 μg/ml) and LiCl (40 mM) and incubated for 20 h at 37° C. Viability of the TNF-α-sensitive cells and measured with a 3-(4,5-dimethylthiazol-2-yl)-2,5-diphenyltetrazolium bromide assay. 50 μl of 3-(4,5-dimethylthiazol-2-yl)-2,5-diphenyltetrazolium bromide (Sigma; 2.5 mg/ml in phosphate-buffered saline) per well were added, and after 4 h of incubation at 37° C., 50 μl of solubilization buffer (20% SDS, 66% dimethyl formamide, pH 4.7) were added, and absorbance (570 nm) was measured. Levels of TNF-α release were then calculated from a standard curve obtained using purified human rTNF-α (PeproTech, Inc., Rocky Hill, N.J.). Interferon-γ released by activated T cells was measured by a sandwich enzyme-linked immunosorbent assay. 5×10^4 γδT cells/well were incubated with stimulus plus 25 units of IL2/well in 100 μl of culture medium during 24 h at 37° C. Then, 50 μl of supernatant were harvested for enzyme-linked immunosorbent assay using mouse monoclonal antibodies (BIOSOURCE, Camarillo, Calif.). […]
BrHPP and HDMAPP bioactivity were compared using in vitro and in vivo assays. The in vitro biological activity of γδ T cell amplification from human PBMCs (in the presence of rhIL2) was assessed using a TNFα release assay.

γδ T cell [2] = test: γδ T cell amplification from human PBMCs, counting γδ T cell using flow cytometry (given as in vivo EC50); assay type: cell-based; conditions: for EC50: γδ T cell amplification from human PBMCs, flow cytometry count
Protocol: The biological activity of γδ T cell amplification from human PBMCs was assessed by counting γδ T cell using flow cytometry.
In vitro proliferation assays and in vitro TNFα release assay are performed essentially as described in Example 3.

γδ T cells [3] = test: In vivo γδ T cell amplification after successive i.v. HDMAPP/IL2 injections in cynomolgus monkeys; set-up: species or system cynomolgus monkeys (M. fascicularis); conditions: day 5
Protocol: Eight purpose bred healthy male cynomolgus monkeys (M. fascicularis). At the beginning of the study, body weights ranged from 3.5 to 4 kg and ages from 37 to 41 months.
Animals were anaesthetised with intra-muscular injection of 6 mg/kg Zoletil™ 100 (Tiletamine-Zolazepam, Virbac, Carros, France) before any perfusion.
HDMAPP was administered i.v. to male cynomolgus monkeys by 30-minute perfusions in a total volume of 50 ml with Ringer Lactate as vehicle. […]
The animals were co-treated subcutaneously with 0.6M IU IL2 in sterile water per day for 5 days.
Blood was drawn pre-dose and at day 4, 5, 7, 11 and 14 after HDMAPP perfusion for flow cytometry analysis of blood cellular populations of interest.
Peripheral γδ lymphocytes were analysed by flow cytometry on total monkey blood, after triple staining with anti-Vgamma9FITC, anti-CD3PE and anti-CD69PC5 antibodies (Vgamma9-FITC: 7B6 clone, produced, purified and FITC-coupled at Innate Pharma; CD3-PE: SP34 clone, BD Biosciences Pharmingen, Le Pont de Claix, France; CD69PC5: FN50 clone, Immunotech-Beckman-Coulter, Marseilles, France).
Briefly, 50 μl monkey blood was incubated 15 min at RT with 10 μl anti-gamma9-FITC, 5 μl anti-CD3-PE and 5 μl anti-CD69PC5 antibodies. Antibodies were washed with 3 ml 1×PBS, centrifuged for 4 min at 1300 rpm at RT and supernatant was discarded. Red cells were lysed with the OptiLyse C reagent (Immunotech-Beckman-Coulter, Marseilles, France) according to the manufacturer's instructions. At the final step, stained white blood cells were recovered by centrifugation and resuspended in 300 μl 1×PBS+0.2% PFA. Immediately before analysis, 50 μl calibrated Flow Count™ Fluorospheres (Immunotech-Beckman-Coulter, Marseilles, France) were added to the cells for absolute number counting of the populations of interest.

Vγ9/Vδ2 T cells = conditions: reported; cited from earlier work
γδ T cells [4] = conditions: Wilhelm et al., 2003; cited from earlier work

Row | SMILES | difference in potency (γδ T cell [1]; HDMAPP vs BrHPP, in vitro EC50) | EC50 (γδ T cell [1]; T-cell, TNFα release assay, human PBMCs, rhIL2) | difference in potency (γδ T cell [2]; HDMAPP vs BrHPP) | EC50 (γδ T cell [2]) | γδ cells among CD3+ (γδ T cells [3]; first of 4 successive injections, 5 weeks apart, 2.6 mg/kg) | γδ cells among CD3+ (γδ T cells [3]; fourth of 4 successive injections) | γδ cells among CD3+ (γδ T cells [3]; second of 4 successive injections) | γδ cells among CD3+ (γδ T cells [3]; third of 4 successive injections) | EC50 (Vγ9/Vδ2 T cells) | increase in γδ T cell count (γδ T cells [4])
1 | C/C(=C\COP(=O)(O)OP(=O)(O)O)CO [HDMAPP, (E)-4-hydroxy-3-methyl-2-butenyl pyrophosphate] | ~50 fold | ~0.6 nM | ~2 log | ~0.005 nM | approx. 60% | ~40% | ~55% | approx. 60% | ~0.1 nM | 
2 | NCCC(O)(P(=O)(O)O)P(=O)(O)O [pamidronate] |  |  |  |  |  |  |  |  |  | ≤ 2 fold
3 | O=P(O)(O)C(O)(Cn1ccnc1)P(=O)(O)O [Zoledronate®, reference compound] |  |  |  | ~1000 nM |  |  |  |  |  | 
